Laboratory results published in paper PMC11478334, “Quaternized Curcumin Derivative—Synthesis, Physicochemical Characteristics, and Photocytotoxicity, Including Antibacterial Activity after Irradiation with Blue Light” (Molecules, 2024).
Read-outs that look alike come from different tables or passages of the source.

Key:
[1] = UV-vis absorption spectra (spectral properties); assay type: physicochemical
From the text: In the UV–vis spectra of the studied curcumin derivatives 2 and 3, typical absorption bands in the 350–550 nm range were noted (Figure 7). The absorption maxima of 2 and its quaternized derivative 3 were located close to 500 nm in both DMSO and DMF (for 2, λmax 496 nm in DMF and 502 nm in DMSO; for 3, λmax 489 nm in DMF and 495 nm in DMSO), whereas for the unsubstituted curcumin, the absorption maximum was located at 430 nm in DMF and 436 nm in DMSO. This implies that the presence of the BF2 moiety induces a strong bathochromic shift, as reported before. Further conversion of non-ionic 2-(morpholin-4-yl)ethoxy substituents present in 2 into quaternary ammonium cations present in 3 2-(N-methylmorpholinium)ethoxy groups induced a slight […] hypsochromic shift in both solvents. The strong absorption band originates mainly from π-π* electronic transition. To a lesser extent, such peaks come from the n-π* transition, although the importance of this crossing remains unclear.

[2] = Photodecomposition quantum yields (photostability under visible light); assay type: physicochemical; conditions: for 10^−5 Φp (photodecomposition quantum yield): visible light over 450 nm; for ΦP (photodecomposition quantum yield) / calculated photodecomposition quantum yields, level: visible light λ ≥ 450 nm; for calculated photodecomposition quantum yields, level: solvent not stated
From the text: The absorption spectra of the studied curcumin derivatives 2 and 3 were monitored during the irradiation and compared with curcumin and zinc(II) phthalocyanine (ZnPc) as references (Figure 8). Under visible light irradiation (λ ≥ 450 nm), curcumin derivatives 2 and 3 only slightly decomposed. The calculated quantum yields were at the level of […]. […] Considering the obtained results, the morpholinoethyl and BF2 moieties tend to stabilize the curcumin core and prevent its photodecomposition. Partial reduction in light absorption (expressed by ε values) has also been noted for other photosensitizers subjected to the quaternization when 2-(morpholin-4-yl)ethoxy substituents were transformed into 2-(N-methylmorpholinium)ethoxy ones.
The photostability measurements were conducted in DMSO and DMF at ambient temperature under aerobic conditions according to the previously described method. A 150 W xenon lamp (Optel, Opole, Poland) was utilized as a light source. In order to separate the visible light (>450 nm), the HCC-16 cutting filter was used. The spectral changes under the irradiation were recorded with an OceanOptics Flame spectrophotometer equipped with a DT-MINI-2-GS light source (OceanOptics, Dunedin, FL, USA). The photodegradation quantum yields were then calculated using the previously presented equation [39, 73, 74, 76].

Aliivibrio fischeri = test: Microtox acute toxicity test; assay type: cell-based; conditions: for acute toxicity / ecotoxicity verdict: tested at 1, 10 and 100 µM
From the text: All studied compounds were subjected to a Microtox acute toxicity test. The test is based on bioluminescent Aliivibrio fischeri bacteria, which are very sensitive to the presence of toxic substances. Changes in the toxicity of the environment surrounding the bacterium influence its respiratory processes and translate into the emitted bioluminescence intensity. Therefore, in contact with a toxic substance at a specific concentration, a linear decrease in luminescence is observed. Dimethylsulfoxide was used as a solubilizer of studied compounds in amounts not exceeding 1% v/v. To determine the effect of the solvent alone, 1% DMSO solution in water was also tested.
The acute toxicity of the tested curcumionoids was investigated on a Modern Water Microtox Model 500 apparatus equipped with Modern Water MicrotoxOmni 4.2 software, according to the 81.9% screening test procedure provided by the manufacturer (Modern Water, London, UK). All the reagents and solutions (Microtox Acute Reagent, Microtox Diluent, and Microtox Osmotic Adjusting Solution) were purchased from Tigret (Warsaw, Poland). Solutions of the tested compounds were prepared using DMSO and deionized water. […] Each compound was tested at three final concentrations (1 µM, 10 µM, and 100 µM) and at two time points: 5 min and 15 min. The change in the bacterial bioluminescence was monitored after the addition of the sample solution and compared to the negative control.

MRC-5—lung fibroblasts = test: MTT cell viability assay; assay type: cell-based, human
Method: To determine the toxicity of the tested compounds against normal and tumor cells, a cell viability assay was performed using MTT dye. The following cell lines were used: PHDF—primary human dermal fibroblasts, MRC-5—lung fibroblasts, WM266-4—melanoma, and WM115—melanoma. Whenever possible, the IC50 value was calculated for each cell line. The IC50 results are reported in Table 9, while Figure 14 presents graphs illustrating the dependence of cell viability on the concentration of the tested compounds.
In order to analyze the cytotoxic effect of curcumin and compounds 2 and 3, different cell lines were used: PHDF—primary human dermal fibroblasts, MRC-5—lung fibroblasts, WM266-4—melanoma (low-melanotic), and WM115—melanoma (high-melanotic). All cell lines were seeded onto 96-well flat-bottom plates at a concentration of 15,000 cells/well. Curcumin (1) and compounds 2 and 3 were dissolved in the completed culture medium at the final concentrations of 5 µM, 10 µM, 20 µM, 30 µM, 40 µM, and 50 µM. The final volume of medium in each well was 200 µL. Cells which were not exposed to the tested compounds constituted a control group. After 24 h, each of the reagents was added to the cells. Control cells were not treated with synthesized reagents; they were incubated with a completed cell culture medium. The incubation of cells with 1, 2, or 3 lasted 24 and 48 h. Then, the medium was discarded, and the new medium containing MTT (3-(4,5-dimethylthiazol-2-yl)-2,5-diphenyltetrazolium bromide) (Affymetrix, Cleveland, OH, USA) at a final concentration of 0.5 mg/mL was added to the cell culture. Cells were incubated for 2.5 h in cell culture conditions. Next, the medium was removed, and 100 µL of DMSO (Thermo Scientific, Waltham, MA, USA) was added to dissolve the formed formazan crystals. The absorbance was read with a Multiskan plate reader at 570 nm and the background at 655 nm (Thermo Scientific, Waltham, MA, USA). The experiment was performed in triplicate.
PHDF cells were extracted from skin pieces collected following mastectomy procedures at the Greater Poland Cancer Centre in Poznań, Poland. Each time, informed patient agreement was acquired for the “The Cancer Genome Atlas (TCGA)” project to utilize biological material for scientific research purposes. […] The MRC-5, WM266-4, and WM115 cell lines were obtained from the American Type Culture Collection (ATCC). For culturing of the PHDF, WM266-4, and WM115 cell lines, the medium contained Dulbecco′s Modified Eagle′s Medium (DMEM) (Biowest, Nuaillé, France), 10% of fetal bovine serum (Biowest, Nuaillé, France), and 1% of penicillin/streptomycin agents (Merck Millipore, Darmstadt, Germany). Cells were incubated in a humidified incubator containing 5% CO2. The MRC-5 cell line was cultured similarly to the method described in our previous article. Briefly, cells were incubated at 37 °C in an atmosphere enriched with 5% CO2. The basic culture medium was Dulbecco’s Modified Eagle’s Medium (DMEM) (Biowest, Nuaillé, France) supplemented with 10% fetal bovine serum (FBS) (Biowest, Nuaillé, France) with the addition of 2 mM L-glutamine and 5% non-essential amino acid solution.

[3] = Homo sapiens, Fibroblast, 24 h incubation, read-out: IC50 24 h
[4] = Homo sapiens, Fibroblast, 48 h incubation, read-out: IC50 48 h (converted)

| Compound | absorption maximum λmax ([1]; in DMF) | absorption maximum λmax ([1]; in DMSO) | 10^−5 Φp (photodecomposition quantum yield) ([2]; DMF) | 10^−5 Φp (photodecomposition quantum yield) ([2]; DMSO) | decrease in A. fischeri bioluminescence (Aliivibrio fischeri; 1 µM) | decrease in A. fischeri bioluminescence (Aliivibrio fischeri; 10 µM) | acute toxicity / ecotoxicity verdict (Aliivibrio fischeri) | IC50 (MRC-5—lung fibroblasts; 24 h incubation, read-out: IC50 24 h) | IC50 (MRC-5—lung fibroblasts; 48 h incubation, read-out: IC50 48 h (converted)) | ΦP (photodecomposition quantum yield) ([2]; DMF) | ΦP (photodecomposition quantum yield) ([2]; DMSO) | calculated photodecomposition quantum yields, level [2] | decrease in A. fischeri bioluminescence (Aliivibrio fischeri; 100 µM) | effect on A. fischeri bioluminescence (Aliivibrio fischeri; lower concentrations (below 100 µM)) | IC50 (MRC-5—lung fibroblasts; [3]) | IC50 (MRC-5—lung fibroblasts; [4]) | decrease in A. fischeri bioluminescence (Aliivibrio fischeri; 10 µM, after 5 min exposure) |
| --- | --- | --- | --- | --- | --- | --- | --- | --- | --- | --- | --- | --- | --- | --- | --- | --- | --- |
| Curcumin [reference compound] | 430 nm | 436 nm | 9.99 10^−5 | 8.31 10^−5 | 0% | 99% | reveals ecotoxicity only at concentrations of 100 µM and 10 µM | 39.5 ± 8.8 µM | 18.1 µM |  |  |  |  |  |  |  |  |
| F[B-]1(F)OC(/C=C/c2ccc(OCCN3CCOCC3)cc2)=CC(/C=C/c2ccc(OCCN3CCOCC3)cc2)=[O+]1 [Compound 2] | 496 nm | 502 nm | 2.90 10^−5 | 5.41 10^−5 |  |  |  |  |  | 2.90 × 10^−5 | 5.41 × 10^−5 | ~10^−4 | 45% | negligible | > 50 µM | 3.8 µM |  |
| C[N+]1(CCOc2ccc(C=CC3=CC(C=Cc4ccc(OCC[N+]5(C)CCOCC5)cc4)=[O+][B-](F)(F)O3)cc2)CCOCC1 [Compound 3] | 489 nm | 495 nm | 20.10 10^−5 | 6.13 10^−5 |  |  | could be ecotoxic at concentrations of 10 µM and 100 µM |  |  |  |  | ~10^−4 | 99% |  | > 50 µM | > 50 µM | 53% |
